The record followed here is patent US5140009A (Tap Pharmaceuticals, Inc., priority 1990, dated 1992).

Read-outs that look alike come from different tables or passages of the source. Numbered stars: 1 amine (or outer) side, 2 acyl side, 3 side chain; on linkers, the order of the positions; unused ones are H or OH. Square brackets hold non-standard residues; d marks the D form. Peptide text beside a SMILES is read from it. * marks the point of attachment. Propanoyl(3-indol-3-yl) = O=C(CCc1c[nH]c2ccccc12)*; Propanoyl(3-(4-F-phenyl)) = O=C(CCc1ccc(F)cc1)*; Propanoyl(3-(4-Cl-Ph)) = O=C(CCc1ccc(Cl)cc1)*; d1Nal = N[C@H](Cc1cccc2ccccc12)C(=O)O; dLys(iPr) = CC(C)NCCCC[C@@H](N)C(=O)O; Lys(iPr) = CC(C)NCCCC[C@H](N)C(=O)O; NMeY = CN[C@@H](Cc1ccc(O)cc1)C(=O)O; Pyrazinecarbonyl = O=C(c1cnccn1)*; d2Thi = N[C@H](Cc1cccs1)C(=O)O; NMeL = CN[C@@H](CC(C)C)C(=O)O; Nicotinoyl = O=C(c1cccnc1)*; X5 = C1CCC(N(C2CCCCC2)*)CC1; CO = O=C([*:1])[*:2]; Bn = c1ccc(C*)cc1; azaGly = NNC(=O)O

The target of this assay is T1, LHRH receptors (Rattus norvegicus, UniProt P30969).
T1 construct: Pituitary membranes containing LHRH receptors are prepared in batches from quick-frozen rat pituitaries; tissue Hilltop Labs; host or cells: rat pituitary membranes
T1 sequence (P30969 1-327): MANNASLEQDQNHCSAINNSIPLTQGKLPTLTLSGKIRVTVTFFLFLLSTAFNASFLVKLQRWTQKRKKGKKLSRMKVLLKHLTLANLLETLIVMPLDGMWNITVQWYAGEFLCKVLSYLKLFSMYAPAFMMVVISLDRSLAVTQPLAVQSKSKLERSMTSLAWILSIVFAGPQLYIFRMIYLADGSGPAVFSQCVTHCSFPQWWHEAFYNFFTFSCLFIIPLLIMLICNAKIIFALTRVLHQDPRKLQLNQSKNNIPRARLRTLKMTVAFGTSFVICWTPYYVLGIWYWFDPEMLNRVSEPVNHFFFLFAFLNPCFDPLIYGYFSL
The experiment in a line: Receptor Binding (radioligand receptor binding assay). Particulars: rat pituitary membranes, 2 hours at 4° C.

Where [1] appears, read: table 4, radioligand 50 pM, read-out: Receptor Binding pkI (converted).
[2] abbreviates: table 3, radioiodinated [D-Leu^6 -des Gly^10 ]-LHRH ethyl amide 50 pM, read-out: Receptor Binding pkI (converted).

For the setting “Receptor Binding pkI, table 3, radioiodinated [D-Leu^6 -des Gly^10 ]-LHRH ethyl amide 50 pM”, `CCNC(=O)[C@@H]1CCCN1C(=O)[C@H](CCCNC(=N)N)NC(=O)[C@H](CC(C)C)NC(=O)[C@@H](Cc1c[nH]c2ccccc12)NC(=O)[C@H](Cc1ccc(O)cc1)NC(=O)[C@H](CO)NC(=O)[C@H](Cc1c[nH]c2ccccc12)NC(=O)[C@H](Cc1ccccc1)NC(=O)N(C1CCCCC1)C1CCCCC1` [Compound 126, (2-9)[N-(N-alpha-Dicyclohexylaminocarbonyl)-Phe^2 -D-Trp^6 -Pro^9 NHEt]LHRH] ({X5-CO}-FWSY[dW]LRP-NHEt) showed a Ki of 37.2 nM.

With `COc1ccc(C[C@H](NC(=O)[C@H](CO)NC(=O)[C@@H](Cc2cccc3ccccc23)NC(=O)CCc2ccc(F)cc2)C(=O)N[C@H](CCCCNC(=O)c2cnccn2)C(=O)N[C@@H](CC(C)C)C(=O)N[C@@H](CCCCNC(C)C)C(=O)N2CCC[C@H]2C(=O)N[C@H](C)C(N)=O)cc1` [Compound 203, (3-10)[N-(3-(4-Fluorophenyl)propionyl)-D-1-Nal^3 -Tyr^5 (OMe)-D-Lys^6 (N-epsilon-2-carbonylpyrazinyl)-Lys^8 (N-epsilon-isopropyl)-D-Ala^10]LHRH] ({Propanoyl(3-(4-F-phenyl))}-[d1Nal]SY(Me)[dK](Pyrazinecarbonyl)L[Lys(iPr)]P[dA]-NH2), the Ki under setting [1] is 0.0209 nM.

`CC(C)C[C@H](NC(=O)[C@@H](CCCCN)NC(=O)[C@H](Cc1ccc(O)cc1)N(C)C(=O)[C@H](COCc1ccccc1)NC(=O)[C@@H](Cc1cccs1)NC(=O)CCc1ccc(Cl)cc1)C(=O)N[C@@H](CCCNC(=N)N)C(=O)N1CCC[C@H]1C(=O)N[C@H](C)C(N)=O` [Compound 168, (3-10)[N-(3-(4-Chlorophenyl)propionyl)-D-Thia^3 -Ser(O-Bzl)^4 -NMeTyr^5 -D-Lys^6 -D-Ala^10]LHRH] ({Propanoyl(3-(4-Cl-Ph))}-[d2Thi]S(Bn)[NMeY][dK]LRP[dA]-NH2): under setting [1], the Ki was 0.129 nM.

As to `CC(C)C[C@@H](C(=O)N[C@@H](CCCNC(=N)N)C(=O)N1CCC[C@H]1C(=O)N[C@H](C)C(N)=O)N(C)C(=O)[C@@H](CCCCN)NC(=O)[C@H](Cc1ccc(O)cc1)N(C)C(=O)[C@H](CO)NC(=O)[C@@H](Cc1cccc2ccccc12)NC(=O)CCc1ccc(F)cc1` [Compound 190, (3-10)[N-(3-(4-Fluorophenyl)propionyl)-D-1-Nal^3 -NMeTyr^5 -D-Lys^6 -NMeLeu^7 -D-Ala^10]LHRH] ({Propanoyl(3-(4-F-phenyl))}-[d1Nal]S[NMeY][dK][NMeL]RP[dA]-NH2), under setting [1], the Ki was 0.0158 nM.

With `CC(C)C[C@H](NC(=O)[C@@H](CCCCNC(=O)c1cccnc1)NC(=O)[C@H](CCCCNC(=O)NN)NC(=O)[C@H](CO)NC(=O)[C@@H](Cc1cccc2ccccc12)NC(=O)CCc1ccc(F)cc1)C(=O)N[C@@H](CCCNC(=N)N)C(=O)N1CCC[C@H]1C(=O)N[C@H](C)C(N)=O` [Compound 212, N-(3-(4-Fluorophenyl)propionyl)-D-1-Nal-Ser-Lys(N-epsilon-hydrazinecarbonyl)-D-Lys(N-epsilon-nicotinyl)-Leu-Arg-Pro-D-AlaNH2] ({Propanoyl(3-(4-F-phenyl))}-[d1Nal]SK(azaGly)[dK](Nicotinoyl)LRP[dA]-NH2), the Ki under setting [1] was 0.0339 nM.

As to `CCNC(=O)[C@@H]1CCCN1C(=O)[C@H](CCCNC(=N)N)NC(=O)[C@H](CC(C)C)NC(=O)[C@@H](CCCCNC(C)C)NC(=O)[C@H](Cc1ccc(O)cc1)NC(=O)[C@H](CO)NC(=O)CCc1c[nH]c2ccccc12` [Compound 54, N-(3-(3-Indole)propionyl)-Ser-Tyr-D-Lys-(N-epsilon-isp)-Leu-Arg-Pro-NHEt] ({Propanoyl(3-indol-3-yl)}-SY[dLys(iPr)]LRP-NHEt), the Ki under setting [2] is 20.4 nM.

Consider `CCNC(=O)[C@@H]1CCCN1C(=O)[C@H](CCCNC(=N)N)NC(=O)[C@H](CC(C)C)NC(=O)[C@@H](Cc1c[nH]c2ccccc12)NC(=O)[C@H](Cc1ccc(O)cc1)NC(=O)[C@H](CO)NC(=O)[C@H](Cc1c[nH]c2ccccc12)NC(=O)CCc1ccc(F)cc1` [Compound 97, (3-9)[N-(3-(4-Fluorophenyl)propionyl) -Trp^3 -D-Trp^6 -Pro^9 NHEt]LHRH] ({Propanoyl(3-(4-F-phenyl))}-WSY[dW]LRP-NHEt), for which the Ki under setting [2] is 0.0331 nM.
